Values joined by “and” are separate entries in the source; they are usually repeats but may differ in a detail not shown here. Identical values can stand only once.
Key:
[1] = Stability of Ru(III) complexes in phosphate buffer by UV-vis spectrophotometry; assay type: physicochemical; conditions: 20 mM phosphate buffer pH 7.4, 100 mM NaCl, 37 °C
Protocol: The stability of Ru(III) complexes (15–20) was investigated in a solution resembling physiological conditions (20 mM of phosphate buffer, pH 7.4, and 100 mM of NaCl at 37 °C) by UV-vis spectrophotometry (Table 1). The half-transformation time t1/2 was calculated based on changes in the electronic absorption spectrum (Figure S1) and defined as the value of t at the Alin/2 point. ΔA(t) was plotted against λmax; the initial section was approximated as a linear function.
The stability of Ru(III) complexes was studied by electron absorption spectroscopy in 20 mM of phosphate buffer, pH 7.4, and 100 mM of NaCl. The working solution (2 mL, 200 μM complex) was prepared by diluting 10 μL of the original 40 mM solution in DMSO and 1.99 mL of phosphate buffer. UV-vis spectra were recorded every 60 s in the range of 280–600 nm at 37 °C. The half-transformation time was t1/2. For λmax, ΔA(t) was plotted, where ΔA = A0–Ai, an initial section, was approximated as a linear function. At ΔAline./2 point calculated as t = t1/2.

A549 = test: Antiproliferative activity, MTT assay; assay type: cell-based, human; conditions: MTT, 72 h exposure; mean ± SD; read-out: IC50, µM A549
Protocol: (§1) The antiproliferative activity of new ligands and complexes was determined against human cell lines, including colon adenocarcinoma SW480, breast adenocarcinoma MCF-7, lung adenocarcinoma A549, neuroblastoma SHSY5Y, and non-tumourigenic HaCaT (Table 4). In general, complexes were more cytotoxic compared to ligands, lonidamine, and, in some cases, cisplatin. […] We chose this compound and the synthetically accessible complex 16 for mechanistic studies.
(§2) The antiproliferative activity was studied by MTT assays as published previously. For flow cytometry studies, cells were plated into 6-well plates (Eppendorf, Germany; 4 × 10^5 cells in 2 mL of DMEM) and incubated for 24 h. Solutions of complexes in DMSO were prepared immediately prior to the day of the experiments. Cells were treated with either 20 µM of cisplatin, 50 µM of 16, or 20 µM of 20. Concentrations corresponded to two-fold IC50 values based on MTT assays. Cells were incubated for 24 h, pooled, washed with cold PBS, and resuspended in DMEM. Aliquots of cells were processed as recommended in the Muse Annexin V&Dead Cell Kit or Muse Caspase-3/7 Kit (Luminex). Measurements were carried out on a Muse Cell Analyser, Luminex corp., TX, USA.

MCF-7 = test: Antiproliferative activity, MTT assay; assay type: cell-based, human; conditions: MTT, 72 h exposure; mean ± SD; read-out: IC50, µM MCF-7
Protocol: as §1, §2

SH-SY5Y = test: Antiproliferative activity, MTT assay; assay type: cell-based, human; conditions: 72 h exposure, mean ± SD
Protocol: as §1, §2

SW480 = test: Antiproliferative activity, MTT assay; assay type: cell-based, human; conditions: MTT, 72 h exposure; mean ± SD; read-out: IC50, µM SW480
Protocol: as §1, §2

HCT116 cells = test: Annexin V/7-AAD flow cytometry (Muse Annexin V & Dead Cell Kit); assay type: cell-based; conditions: HCT116, 24 h; for Annexin V-positive cells: 2xIC50 (50 µM of 16, 20 µM of 20); for early apoptosis (Annexin V/7-AAD) / late apoptosis (Annexin V/7-AAD) / live cells (Annexin V/7-AAD) / necrosis (Annexin V/7-AAD): 2xIC50, one representative experiment
Protocol: Mechanisms of cell death, that is, Annexin V/7-AAD reactivity and caspase 3/7 activation, were determined for 16 and 20 in HCT116 cells using the Muse® Annexin V & Dead Cell Kit (Luminex corp., Austin, TX, USA) and flow cytometry. Cells were incubated with 16, 20, or cisplatin (reference drug) for 24 h at concentrations corresponding to 2xIC50 values (obtained in MTT assays; Table 4). The percentages of Annexin V-positive cells in response to 16 and 20 were higher than cisplatin (Figure 8). Complex 20 with the C12 linker induced Annexin V positivity slightly more efficiently than 16 with the C3 linker (27.4 ± 2.1% vs. 19.7 ± 0.6%).
as §2

Balb/c mice = test: In vivo acute toxicity; conditions: for Drug-induced lethality, died/survived (n = 6): 21 days
Protocol: Finally, we tested the acute toxicity of complex 16 in Balb/c mice after a single bolus i.p. injection of the compound dissolved in saline. […] Animals were monitored for 21 days after injection. […] Mice in these cohorts had normal hair cover; no changes of nutritional behaviour were registered over the entire period of observation. In contrast, doses >80 mg/kg were lethal for individual animals. […] Deaths were registered over the next 1–2 days (Table 5). In each group, the survived animals remained without visible changes for up to 21 days after the injection of 16.
The Balb/c female mice (8–10 weeks old, weight 20–22 g) were bred and hosted at the animal facility of the Blokhin Cancer Center. Mice were kept at 21 ± 1 °C, 50–60% humidity; food and water were added ad libitum. All manipulations were performed in accordance to the European Convention for the Protection of Vertebrate Animals used for Experimental and other Scientific Purposes (ETS 123). Compound 16 was injected i.p.; 70–110 mg/kg single bolus administration in 200 µL of saline. Each cohort contained six mice. Animals were monitored for 21 days after injection. General behavioural activity, nutritional habits, and the integrity of hair cover were the criteria of acute toxicity.

[2] = Lipophilicity, shake-flask method water/n-octanol; assay type: physicochemical; conditions: UV-vis, mean ± SD
Protocol: The lipophilicity of complexes 15–20 was studied using a standard shake-flask method in a mixture of water/n-octanol. For the quantification of compounds in the water phase, UV-vis spectrophotometry was used. […] Among other complexes, as expected, 20 was the most lipophilic (Table 1).
N-octanol was saturated with water and with water saturated with n-octanol; mixture400 mL of n-octanol (water) and 100 mL of water (n-octanol) was stirred for 24 h; and then fractions were separated. The sample of the complex was dissolved in n-octanol and a series of solutions in octanol (300, 250, 3 × 200, 150, 100, and 50 μM) was prepared. Absorption spectra were recorded and the calibration curve for maximum absorption was plotted. From 200 μM solutions, the mixtures with water were prepared (1:1, 1:2, 2:1 v/v) and shaken for 15 min. The organic phase was separated by centrifugation. The concentration of the complex in n-octanol was determined from the calibration curve and lipophilicity (logP) was calculated as log P = log [(C0–Caq)/Caq].

Substance	t1/2 (half-transformation time) ([1]; mean ± SD, three experiments) [s]	IC50 (A549) [µM]	IC50 (MCF-7) [µM]	IC50 (SH-SY5Y) [µM]	IC50 (SW480) [µM]	Annexin V-positive cells (HCT116 cells) [%]	early apoptosis (Annexin V/7-AAD) (HCT116 cells) [%]	late apoptosis (Annexin V/7-AAD) (HCT116 cells) [%]	live cells (Annexin V/7-AAD) (HCT116 cells) [%]	necrosis (Annexin V/7-AAD) (HCT116 cells) [%]	signs of acute toxicity (Balb/c mice; 110 mg/kg i.p., initial 1–2 h after injection)	Drug-induced lethality, died/survived (n = 6) (Balb/c mice; single dose 70 mg/kg i.p., 70 mg/kg)	Drug-induced lethality, died/survived (n = 6) (Balb/c mice; single dose 80 mg/kg i.p., 80 mg/kg)	Drug-induced lethality, died/survived (n = 6) (Balb/c mice; single dose 90 mg/kg i.p.)	Drug-induced lethality, died/survived (n = 6) (Balb/c mice; single dose 100 mg/kg i.p.)	Drug-induced lethality, died/survived (n = 6) (Balb/c mice; single dose 110 mg/kg i.p.)	t1/2 (half-transformation time) [1]	Log P [2]
Na[trans-Ru(DMSO)(C21H19Cl2N5O)Cl4] [Compound 16]	330 ± 20	> 30	23 ± 0.5	26.1 ± 5.5	25 ± 7.1	19.7 ± 0.6	3	20	78	0	Tremor and dyspnoea	no deaths and 0/6 *	no deaths and 0/6	2/6	2/6	4/6		
Na[trans-Ru(DMSO)(C30H37Cl2N5O)Cl4] [Compound 20]	2150 ± 110	8.1 ± 1.1	9.2 ± 0.1	6.1 ± 0.3	9.6 ± 1.3	27.4 ± 2.1	5	26	69	0							~ 35 min	1.3 ± 0.2

From publication PMC8707700, “Ru(III) Complexes with Lonidamine-Modified Ligands” (International Journal of Molecular Sciences, 2021)
